The values that follow come from US9309263B2, “Fused multi-cyclic sulfone compounds as inhibitors of beta-secretase and methods of use thereof” (AMGEN INC., priority 2013, dated 2016).

A value given as a limit tells only on which side of the number the result lay.

Test [1] has as its target Beta Secretase enzyme (BACE) (Homo sapiens, UniProt P56817). Briefly: In vitro enzymatic BACE FRET assay. Format: biochemical. The settings on record: average IC50; read-out: BACE1 FRET assay IC50. The gist of the method:
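Enzyme (0.2 nM) pre-incubated 1 h with serially diluted inhibitors in 0.05 M acetate pH 4.2, 10% DMSO, 100 uM genapol. Reaction started with 50 nM fluorophore/quencher peptide FRET substrate, run 1 h, stopped with Tris to neutral pH. Fluorescence read at excitation 488 nm, […].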

Test [2] has as its system Aβ 40 in conditioned medium of cells stably expressing Amyloid Precursor Protein (APP). Briefly: In vitro BACE cell-based assay (Aβ 40 sandwich ELISA). The settings on record: Homo sapiens, HEK293; HEK cells; average IC50. The gist of the method: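 APP-expressing cells, 24 h pre-culture in DMEM/10% FBS, treated 24 h with 10-point compound dilutions from 100 or 10 μM top, 0.1% DMSO final. Secreted Aβ40 quantified by sandwich ELISA (pAb40 capture, biotinylated 6E10 detection, europium TRF); IC50 from percent inhibition versus concentration.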

The target in test [3] is Cathepsin D (Cat D) (Homo sapiens, UniProt P07339). Briefly: In vitro enzymatic Cathepsin D (Cat D) FRET assay. Format: biochemical. The settings on record: read-out: CatD IC50. The gist of the method:
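Recombinant CHO-expressed enzyme (9 nM) pre-incubated 1 h with serially diluted inhibitor in 0.05 M citrate pH 3.5, 10% DMSO final, 5 mM CHAPS. Reaction started with 20 nM FRET peptide substrate, run 1 h, stopped with Tris to neutral pH; fluorescence read at ex 500/em 580 nm.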

Cathepsin D (Cat D), sequence (P07339 65-412, species assumed): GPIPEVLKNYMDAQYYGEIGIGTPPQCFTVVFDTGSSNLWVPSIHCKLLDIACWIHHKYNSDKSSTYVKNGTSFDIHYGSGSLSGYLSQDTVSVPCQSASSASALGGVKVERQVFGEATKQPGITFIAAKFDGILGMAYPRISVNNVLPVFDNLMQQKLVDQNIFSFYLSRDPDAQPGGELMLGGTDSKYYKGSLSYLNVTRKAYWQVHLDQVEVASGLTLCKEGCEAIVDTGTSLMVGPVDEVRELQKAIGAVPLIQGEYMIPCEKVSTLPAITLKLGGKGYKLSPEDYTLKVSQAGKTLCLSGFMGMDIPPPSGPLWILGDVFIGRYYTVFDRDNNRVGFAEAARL
Beta Secretase enzyme (BACE), sequence (P56817 46-501): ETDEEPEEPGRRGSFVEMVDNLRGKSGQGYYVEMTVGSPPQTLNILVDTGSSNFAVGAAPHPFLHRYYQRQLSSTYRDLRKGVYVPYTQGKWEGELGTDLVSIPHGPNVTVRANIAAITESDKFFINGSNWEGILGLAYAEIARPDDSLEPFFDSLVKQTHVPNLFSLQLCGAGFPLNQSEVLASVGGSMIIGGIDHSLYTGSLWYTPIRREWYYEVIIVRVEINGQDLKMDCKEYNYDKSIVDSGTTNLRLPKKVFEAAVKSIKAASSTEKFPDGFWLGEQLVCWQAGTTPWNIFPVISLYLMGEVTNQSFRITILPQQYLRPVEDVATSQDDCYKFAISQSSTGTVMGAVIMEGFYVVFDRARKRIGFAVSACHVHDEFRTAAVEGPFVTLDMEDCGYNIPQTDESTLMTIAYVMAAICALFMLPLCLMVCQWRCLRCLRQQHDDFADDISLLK

On to `CC1(C)C(N)=N[C@]2(C)c3cc(NC(=O)c4cnc(OCC(F)(F)F)cn4)ccc3OCC[C@H]2S1(=O)=O` [Example 169, N-((4aR,11bR)-2-amino-3,3,11b-trimethyl-4,4-dioxido-4a,5,6,11b-tetrahydro-3H-[1]benzoxepino[4,5-b][1,4]thiazin-10-yl)-5-(2,2,2-trifluoroethoxy)-2-pyrazinecarboxamide], for which the IC50 worked out at 0.001 µM in test [1], 0.004 µM in test [2] and 1620 µM in test [3].

As for `Cc1cc(OCC2CC2)cnc1C(=O)Nc1ccc2c(c1)[C@@]1(C)N=C(N)C(C)(C)S(=O)(=O)[C@@H]1CCO2` [Example 170, N-((4aR,11bR)-2-amino-3,3,11b-trimethyl-4,4-dioxido-4a,5,6,11b-tetrahydro-3H-[1]benzoxepino[4,5-b][1,4]thiazin-10-yl)-5-(cyclopropylmethoxy)-3-methyl-2-pyridinecarboxamide], the results for the IC50 in test [1], in test [2] and in test [3] were 0.014 µM, 0.026 µM and 2050 µM, respectively.

With `CC1(C)C(N)=N[C@]2(C)c3cc(Nc4ncc(F)c5cc(C#N)cnc45)ccc3OCC[C@H]2S1(=O)=O` [Example 171, 8-(((4aR,11bR)-2-amino-3,3,11b-trimethyl-4,4-dioxido-4a,5,6,11b-tetrahydro-3H-[1]benzoxepino[4,5-b][1,4]thiazin-10-yl)amino)-5-fluoro-1,7-naphthyridine-3-carbonitrile], the IC50 was 0.003 µM in test [1], 0.01 µM in test [2] and above 14.8 µM in test [3].

Consider `CC1(C)C(N)=N[C@]2(C)c3cc(NC(=O)c4ncc(C(F)F)cc4Cl)ccc3OCC[C@H]2S1(=O)=O` [Example 172, N-((4aR,11bR)-2-amino-3,3,11b-trimethyl-4,4-dioxido-4a,5,6,11b-tetrahydro-3H-[1]benzoxepino[4,5-b][1,4]thiazin-10-yl)-3-chloro-5-(difluoromethyl)-2-pyridinecarboxamide], for which the half-maximal inhibitory concentration (IC50) in test [1] was 0.012 µM; in test [2], 0.004 µM; in test [3], above 400 µM.

As to `COc1cnc(C(=O)Nc2ccc3c(c2)[C@@]2(C)N=C(N)C(C)(C)S(=O)(=O)[C@@H]2CCO3)c(Cl)c1` [Example 173, N-((4aR,11bR)-2-amino-3,3,11b-trimethyl-4,4-dioxido-4a,5,6,11b-tetrahydro-3H-[1]benzoxepino[4,5-b][1,4]thiazin-10-yl)-3-chloro-5-methoxy-2-pyridinecarboxamide], the IC50 is 0.005 µM in test [1], 0.007 µM in test [2] and above 400 µM in test [3].

As to `CC1(C)C(N)=N[C@]2(C)c3cc(NC(=O)c4ncc(C#N)cc4Cl)ccc3OCC[C@H]2S1(=O)=O` [Example 174, N-((4aR,11bR)-2-amino-3,3,11b-trimethyl-4,4-dioxido-4a,5,6,11b-tetrahydro-3H-[1]benzoxepino[4,5-b][1,4]thiazin-10-yl)-3-chloro-5-cyano-2-pyridinecarboxamide], the half-maximal inhibitory concentration (IC50) is 0.002 µM in test [1], 0.002 µM in test [2] and 1070 µM in test [3].

As to `CC1(C)C(N)=N[C@]2(C)c3cc(NC(=O)c4ccc(OCC5CC5)cn4)ccc3OCC[C@H]2S1(=O)=O` [Example 175, N-((4aR,11bR)-2-amino-3,3,11b-trimethyl-4,4-dioxido-4a,5,6,11b-tetrahydro-3H-[1]benzoxepino[4,5-b][1,4]thiazin-10-yl)-5-(cyclopropylmethoxy)-2-pyridinecarboxamide], the IC50 in test [1] stood at 0.009 µM; in test [2] it was 0.017 µM; in test [3], 1510 µM.

For the compound `CC1(C)C(N)=N[C@]2(C)c3cc(Nc4ncnc5cc(Cl)cnc45)ccc3OCC[C@H]2S1(=O)=O` [Example 176, (4aR,11bR)-N^~10^~-(7-chloropyrido[3,2-d]yrimidin-4-yl)-3,3,11b-trimethyl-4a,5,6,11b-tetrahydro-3H-[1]benzoxepino[4,5-b][1,4]thiazine-2,10-diamine 4,4-dioxide], the IC50 in test [1] turned out to be 0.008 µM; in test [2], 0.011 µM; in test [3], 186 µM.

On to `COc1cnc2c(Nc3ccc4c(c3)[C@@]3(C)N=C(N)C(C)(C)S(=O)(=O)[C@@H]3CCO4)ncc(F)c2c1` [Example 177, (4aR,11bR)-N^~10^~-(5-fluoro-3-methoxy-1,7-naphthyridin-8-yl)-3,3,11b-trimethyl-4a,5,6,11b-tetrahydro-3H-[1]benzoxepino[4,5-b][1,4]thiazine-2,10-diamine 4,4-dioxide], for which the values for the IC50 in test [1], in test [2] and in test [3] were 0.018 µM, 0.111 µM and 314 µM, respectively.

Consider `Cc1nc(OCC2CC2)cnc1C(=O)Nc1ccc2c(c1)[C@@]1(C)N=C(N)C(C)(C)S(=O)(=O)[C@@H]1CCO2` [Example 178, N-((4aR,11bR)-2-amino-3,3,11b-trimethyl-4,4-dioxido-4a,5,6,11b-tetrahydro-3H-benzo[6,7]oxepino[4,5-b][1,4]thiazin-10-yl)-5-(cyclopropylmethoxy)-3-methylpyrazine-2-carboxamide], for which the results for the IC50 in test [1], in test [2] and in test [3] were 0.01 µM, 0.028 µM and 586 µM, respectively.

In the case of `CC1(C)C(N)=N[C@]2(C)c3cc(NC(=O)c4ccc(C5CC5)cn4)ccc3OCC[C@H]2S1(=O)=O` [Example 179, N-((4aR,11bR)-2-amino-3,3,11b-trimethyl-4,4-dioxido-4a,5,6,11b-tetrahydro-3H-[1]benzoxepino[4,5-b][1,4]thiazin-10-yl)-5-cyclopropyl-2-pyridinecarboxamide], the IC50 in test [1] was determined as 0.066 µM; in test [2], 0.035 µM; in test [3], 705 µM.

For `Cc1cc(Cl)cnc1C(=O)Nc1ccc2c(c1)[C@@]1(C)N=C(N)C(C)(C)S(=O)(=O)[C@@H]1C[C@@H](C)O2` [Example 180, N-((4aR,6R,11bR)-2-amino-3,3,6,11b-tetramethyl-4,4-dioxido-4a,5,6,11b-tetrahydro-3H-[1]benzoxepino[4,5-b][1,4]thiazin-10-yl)-5-chloro-3-methyl-2-pyridinecarboxamide], the IC50 in test [1] came to 0.003 µM; in test [2], 0.005 µM; in test [3] it was 90.4 µM.

As for `Cc1cc(Cl)cnc1C(=O)Nc1ccc2c(c1)[C@@]1(C)N=C(N)C(C)(C)S(=O)(=O)[C@H]1C[C@@H](C)O2` [Example 181, N-((4aS,6R,11bR)-2-amino-3,3,6,11b-tetramethyl-4,4-dioxido-4a,5,6,11b-tetrahydro-3H-[1]benzoxepino[4,5-b][1,4]thiazin-10-yl)-5-chloro-3-methyl-2-pyridinecarboxamide], the IC50 in test [1] is 0.001 µM; in test [2], 0.0008 µM; in test [3], 124 µM.

On to `CC#CCOc1cnc2c(Nc3ccc4c(c3)C3(C)N=C(N)C(C)(C)S(=O)(=O)C3CCO4)nccc2c1` [Example 182, (4aR,11bR)-N^~10^~-(3-(2-butyn-1-yloxy)-1,7-naphthyridin-8-yl)-3,3,11b-trimethyl-4a,5,6,11b-tetrahydro-3H-[1]benzoxepino[4,5-b][1,4]thiazine-2,10-diamine 4,4-dioxide], for which the IC50 in test [1] was 0.003 µM; in test [2], 0.014 µM; in test [3], above 400 µM.

For the compound `Cc1cc(Cl)cnc1C(=O)Nc1ccc2c(c1)[C@@]1(C)N=C(N)C(C)(C)S(=O)(=O)[C@H]1C[C@H](C)O2` [Example 183, N-((4aS,6S,11bR)-2-amino-3,3,6,11b-tetramethyl-4,4-dioxido-4a,5,6,11b-tetrahydro-3H-[1]benzoxepino[4,5-b][1,4]thiazin-10-yl)-5-chloro-3-methyl-2-pyridinecarboxamide], the IC50 came to 0.009 µM in test [1], 0.003 µM in test [2] and 44 µM in test [3].

As for `Cc1cc(Cl)cnc1C(=O)Nc1ccc2c(c1)[C@@]1(C)N=C(N)C(C)(C)S(=O)(=O)[C@H]1CC(C)(C)O2` [Example 184, N-((4aS,11bR)-2-amino-3,3,6,6,11b-pentamethyl-4,4-dioxido-4a,5,6,11b-tetrahydro-3H-[1]benzoxepino[4,5-b][1,4]thiazin-10-yl)-5-chloro-3-methyl-2-pyridinecarboxamide], the IC50 in test [1] amounted to 0.008 µM; in test [2], 0.004 µM; in test [3], 403 µM.

As for `COc1ccc(C(=O)Nc2ccc3c(c2)[C@@]2(C)N=C(N)C(C)(C)S(=O)(=O)[C@@H]2CCO3)nc1` [Example 185, N-((4aR,11bR)-2-amino-3,3,11b-trimethyl-4,4-dioxido-4a,5,6,11b-tetrahydro-3H-[1]benzoxepino[4,5-b][1,4]thiazin-10-yl)-5-methoxy-2-pyridinecarboxamide], the IC50 was 0.021 µM in test [1], 0.013 µM in test [2] and 516 µM in test [3].

For the compound `CC1(C)C(N)=N[C@]2(C)c3cc(NC(=O)c4ccc(Cl)cn4)ccc3OCC[C@H]2S1(=O)=O` [Example 186, N-((4aR,11bR)-2-amino-3,3,11b-trimethyl-4,4-dioxido-4a,5,6,11b-tetrahydro-3H-[1]benzoxepino[4,5-b][1,4]thiazin-10-yl)-5-chloro-2-pyridinecarboxamide], the IC50 in test [1] amounted to 0.006 µM; in test [2], 0.01 µM; in test [3] it was 279 µM.

For orientation: IC50 means the concentration at which inhibition is half-maximal.
